Measurements: paper PMC4707489, “A novel cell-penetrating peptide suppresses breast tumorigenesis by inhibiting β-catenin/LEF-1 signaling” (Scientific Reports, 2016)

Tests used:
[1] = system: MCF-7-GFP cells in zebrafish embryos; test: Zebrafish xenotransplantation, fluorescence density; type: in vivo, Danio rerio; settings: MCF-7-GFP co-injected with 100 μmol/l peptide into yolk sacs, between 24 hr and 48 hr, n = 20 per group, vs TAT-NLS-BLBD-6m
Text: (§1) All animal experiments were approved by the Kaohsiung Medical University Institutional Animal Care and Use Committee (IACUC Approval No: 101156) and we accordance with the approved guidelines. Female nude mice (4–5 weeks old) were obtained from the National Laboratory Animal Center (Taipei, Taiwan). Xenograft tumor models were established by subcutaneous injection of 1 × 10^7 MCF-7-YFP or MDA-MB-231-GFP cells into the right flanks of mice. Mice with palpable tumors were randomly divided into three groups with five animals in each group. The mice were treated with control peptide, 0, 1 and 10 mg/kg TAT-NLS-BLBD-6 by intratumoral injection once every 2 days for 35 days. The fluorescence density was analyzed by an In Vivo Imaging System (IVIS) (Berthold Technologies, Bad Wildbad, Germany), and the tumor volumes (V) of nude mice were calculated by: V = length × diameter^2 × 0.5. For zebrafish xenotransplantation, zebrafishes (Danio rerio) were maintained at 28 °C in an air incubator, and 1 × 10^4 MCF-7-GFP or MDA-MB-231-GFP cells combined with TAT-NLS-BLBD-6 or control peptide were injected into the zebrafish embryos according to the previously described protocol. […]

[2] = system: MDA-MB-231-GFP cells in zebrafish embryos; test: as above; type: in vivo, Danio rerio; settings: MDA-MB-231-GFP co-injected with 100 μmol/l peptide into yolk sacs, between 24 hr and 48 hr, n = 20 per group, vs TAT-NLS-BLBD-6m
Text: as §1

Substance: H-TAT-NLS-ATDEMIPF-NH2 [TAT-NLS-BLBD-6]
- fluorescence density of transplanted tumor cells [1]: gradually reduced
- fluorescence density of transplanted tumor cells [2]: gradually reduced
